Converted amounts (≈) assume the structure as drawn.
Key:
S. aureus 209P = assay: Antibacterial action, MIC against S. aureus 209P (standard method of the Japanese Chemotherapy Society); type: cell-based; details: Staphylococcus aureus, read-out: minimum growth-inhibition concentration (MIC)
Procedure: (§1) A minimum growth-inhibition concentration (MIC: μg/ml) was measured according to the standard method of the Japanese Chemotherapy Society (CHEMOTHERAPY, 29 (1), 76, 1981).

P. aeruginosa IFO3445 = assay: Antibacterial action, MIC against P. aeruginosa IFO3445 (standard method of the Japanese Chemotherapy Society); type: cell-based; details: Pseudomonas aeruginosa, read-out: minimum growth-inhibition concentration (MIC)
Procedure: as §1

female ICR mouse = assay: Phototoxicity test, ear abnormality after UV irradiation; type: in vivo; details: 40 mg/kg i.v., UV 320-400 nm 4 hours; for Frequency (ear abnormality), 0 hour / Frequency (ear abnormality), 24 hours / Frequency (ear abnormality), 48 hours: affected/total mice; for Rating (ear abnormality), 0 hour / Rating (ear abnormality), 24 hours / Rating (ear abnormality), 48 hours: point 0 no abnormality, 1 light, 2 medium erythema, 3 heavy erythema or edema
Procedure: After a compound to be tested (40 mg/kg/10 ml) was intravenously administered to a female ICR mouse (5-6 weeks old), ultraviolet radiation (320 to 400 nm, 1.8 mW/cm^2 /sec.) was irradiated for 4 hours. […] Ear abnormality was rated point 0 for no abnormality, point 1 for light erythema, point 2 for medium erythema, and point 3 for heavy erythema or edema.

CHL cells = assay: Chromosomal aberration test, CHL cells; type: cell-based; details: 0 to 200 μg/ml; metabolic activation method (S9) and direct method 24 and 48 hours
Procedure: CHL cells (0.2 to 2×10^5 cells/well) suspended in an Eagle's MEM medium having 10% bovine fetal serum added thereto were incubated in a 60-mm dish. After the cells were cultured at 37° C. for 4 to 72 hours in the presence of 5% CO2, the medium was replaced by a medium containing an agent in a different concentration and culturing was continued under the same conditions. In the case of a metabolic activation method (S9 added medium), after 6 hours of culturing, the medium was replaced by a medium free of an agent and S9 and culturing was continued for a further 18 hours. In the case of a direct method, the cells were cultured in two ways for 24 hours and 48 hours. At the end of culturing, a chromosome sample was prepared according to the method prescribed by the Japan Surrounding Mutagen society.

Row | Structure (SMILES) | MIC (S. aureus 209P) [µg/mL] | MIC (P. aeruginosa IFO3445) [µg/mL] | Chromosomal aberration (rate of structural aberration) (CHL cells) | Frequency (ear abnormality), 0 hour (female ICR mouse) | Rating (ear abnormality), 0 hour (female ICR mouse) | Frequency (ear abnormality), 24 hours (female ICR mouse) | Rating (ear abnormality), 24 hours (female ICR mouse) | Frequency (ear abnormality), 48 hours (female ICR mouse) | Rating (ear abnormality), 48 hours (female ICR mouse)
1 | Nc1cc(-n2cc(C(=O)O)c(=O)c3cc(F)c(N4CC[C@H](N)C4)nc32)c(F)cc1F [Example 48, 1-(3-amino-4,6-difluorophenyl)-7-[(3S)-3-aminopyrrolidin-1-yl]-6-fluoro-1,4-dihydro-4-oxo-1,8-naphthyridine-3-carboxylic acid] | 0.025 (≈ 0.0596 µM) | 0.1 (≈ 0.238 µM) | negative | 0/3 | 0 | 0/3 | 0 | 0/3 | 0
2 | C[C@@H]1CN(c2nc3c(cc2F)c(=O)c(C(=O)O)cn3-c2cc(N)c(F)cc2F)C[C@H]1N [Example 56, 1-(3-amino-4,6-difluorophenyl)-7-[(3S,4R)-3-amino-4-methylpyrrolidin-1-yl]-6-fluoro-1,4-dihydro-4-oxo-1,8-naphthyridine-3-carboxylic acid] | 0.025 (≈ 0.0577 µM) | 0.1 (≈ 0.231 µM) |  |  |  |  |  |  | 
3 | Nc1cc(-n2cc(C(=O)O)c(=O)c3cc(F)c(N4CC(N)C4)nc32)c(F)cc1F [Example 117, 7-(3-aminoazetidin-1-yl)-1-(3-amino-4,6-difluorophenyl)-6-fluoro-1,4-dihydro-4-oxo-1,8-naphthyridine-3-carboxylic acid] | 0.05 (≈ 0.123 µM) | 0.1 (≈ 0.247 µM) | negative | 0/3 | 0 | 0/3 | 0 | 0/3 | 0
4 | Nc1cc(-n2cc(C(=O)O)c(=O)c3cc(F)c(N4CC(N)C4)c(F)c32)c(F)cc1F [Example 150, 7-(3-aminoazetidin-1-yl)-1-(3-amino-4,6-difluorophenyl)-6,8-difluoro-1,4-dihydro-4-oxoquinoline-3-carboxylic acid] | 0.025 (≈ 0.0592 µM) | 0.2 (≈ 0.474 µM) |  | 0/3 | 0 | 0/3 | 0 | 0/3 | 0
5 | Nc1cc(-n2cc(C(=O)O)c(=O)c3c(O)c(F)c(N4CC[C@H](N)C4)cc32)c(F)cc1F [Example 160, 1-(3-amino-4,6-difluorophenyl)-7-[(3S)-3-aminopyrrolidin-1-yl]-6-fluoro-5-hydroxy-1,4-dihydro-4-oxoquinoline-3-carboxylic acid] | 0.025 (≈ 0.0576 µM) | 0.2 (≈ 0.46 µM) |  | 0/3 | 0 | 0/3 | 0 | 0/3 | 0
6 | NC1CCN(c2nc3c(cc2F)c(=O)c(C(=O)O)cn3-c2ccc(F)cc2F)C1 (stereo not drawn) [tosufloxacin, reference compound] | 0.05 (≈ 0.124 µM) | 0.39 (≈ 0.965 µM) |  | 4/5 | 1.8 | 4/5 | 0.8 | 1/5 | 0.2

These reach a lower MIC (S. aureus 209P). Values come first.

Row | MIC (S. aureus 209P) [µg/mL] | MIC (P. aeruginosa IFO3445) [µg/mL] | Chromosomal aberration (rate of structural aberration) (CHL cells) | Structure (SMILES) | Frequency (ear abnormality), 0 hour (female ICR mouse) | Rating (ear abnormality), 0 hour (female ICR mouse) | Frequency (ear abnormality), 24 hours (female ICR mouse) | Rating (ear abnormality), 24 hours (female ICR mouse) | Frequency (ear abnormality), 48 hours (female ICR mouse) | Rating (ear abnormality), 48 hours (female ICR mouse)
7 | 0.013 (≈ 0.0311 µM) | 0.1 (≈ 0.239 µM) |  | Nc1cc(-n2cc(C(=O)O)c(=O)c3cc(F)c(N4CC[C@H](N)C4)cc32)c(F)cc1F [Example 60, 1-(3-amino-4,6-difluorophenyl)-7-[(3S)-3-aminopyrrolidin-1-yl]-6-fluoro-1,4-dihydro-4-oxoquinoline-3-carboxylic acid] |  |  |  |  |  | 
8 | < 0.013 | 0.05 (≈ 0.114 µM) |  | Nc1cc(-n2cc(C(=O)O)c(=O)c3cc(F)c(N4CC(N)C4)c(Cl)c32)c(F)cc1F [Example 152, 7-(3-aminoazetidin-1-yl)-1-(3-amino-4,6-difluorophenyl)-8-chloro-6-fluoro-1,4-dihydro-4-oxoquinoline-3-carboxylic acid] | 0/3 | 0 | 0/3 | 0 | 0/3 | 0
9 | < 0.013 | 0.1 (≈ 0.221 µM) |  | CC1(N)CN(c2c(F)cc3c(=O)c(C(=O)O)cn(-c4cc(N)c(F)cc4F)c3c2Cl)C1 [Example 156, 1-(3-amino-4,6-difluorophenyl)-7-(3-amino-3-methylazetidin-1-yl)-8-chloro-6-fluoro-1,4-dihydro-4-oxoquinoline-3-carboxylic acid] |  |  |  |  |  | 
10 | < 0.013 | 0.1 (≈ 0.221 µM) |  | CNC1CN(c2c(F)cc3c(=O)c(C(=O)O)cn(-c4cc(N)c(F)cc4F)c3c2Cl)C1 [Example 157, 1-(3-amino-4,6-difluorophenyl)-8-chloro-6-fluoro-7-(3-methylaminoazetidin-1-yl)-1,4-dihydro-4-oxoquinoline-3-carboxylic acid] |  |  |  |  |  | 
11 | 0.013 (≈ 0.0301 µM) | 0.2 (≈ 0.463 µM) |  | Cc1c(F)c(N2CC[C@H](N)C2)cc2c1c(=O)c(C(=O)O)cn2-c1cc(N)c(F)cc1F [Example 162, 1-(3-amino-4,6-difluorophenyl)-7-[(3S)-3-aminopyrrolidin-1-yl]-6-fluoro-5-methyl-1,4-dihydro-4-oxoquinoline-3-carboxylic acid] |  |  |  |  |  | 
